Laboratory results published in the supplement of paper PMC10307832.

Experiments:
Experiment in all cases: relative viability (nuclei count vs DMSO), 5 days (fraction); higher = more cells survive
Lenalidomide = compound: Nc1cccc2c1CN(C1CCC(=O)NC1=O)C2=O [Lenalidomide]
Procedure, shortened: (§1)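 After an overnight hold at 37 °C, lung cancer cell lines in 1536-well plates were pinned with five library-drug doses (not always all listed), each √10 from the next, on vehicle-anchored plates. The cells stayed 5 days without fresh medium, then a one-step fix, permeabilisation and Hoechst stain preceded 4× imaging and MetaXpress nuclear counts. A plate passed only with control CV under 25% and at least one doubling. Viability is the median, over plates, of treated-well nuclei relative to vehicle-well nuclei.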

Luminespib = compound: CCNC(=O)c1noc(-c2cc(C(C)C)c(O)cc2O)c1-c1ccc(CN2CCOCC2)cc1 [Luminespib]
Procedure, shortened: as §1

MIM1 = compound: CC1=CSC(=NC2CCCCC2)N1/N=C/C3=C(C(=C(C=C3)O)O)O [MIM1]
Procedure, shortened: as §1

Saracatinib = compound: CN1CCN(CCOc2cc(OC3CCOCC3)c3c(Nc4c(Cl)ccc5c4OCO5)ncnc3c2)CC1 [Saracatinib]
Procedure, shortened: as §1

Nilotinib = compound: Cc1cn(-c2cc(NC(=O)c3ccc(C)c(Nc4nccc(-c5cccnc5)n4)c3)cc(C(F)(F)F)c2)cn1 [Nilotinib]
Procedure, shortened: as §1

| Cell Line | relative viability (Lenalidomide; 0.253 µM) | relative viability (Lenalidomide; 2.53 µM) | relative viability (Lenalidomide; 8 µM) | relative viability (Luminespib; 0.002 µM) | relative viability (Luminespib; 0.006325 µM) | relative viability (Luminespib; 0.01 µM, anchor plate) | relative viability (Luminespib; 0.02 µM) | relative viability (Luminespib; 0.06325 µM) | relative viability (Luminespib; 0.2 µM) | relative viability (MIM1; 0.2 µM) | relative viability (MIM1; 0.6325 µM) | relative viability (MIM1; 2 µM) | relative viability (MIM1; 6.325 µM) | relative viability (MIM1; 20 µM) | relative viability (Saracatinib; 0.02 µM) | relative viability (Saracatinib; 0.2 µM) | relative viability (Saracatinib; 0.6325 µM) | relative viability (Saracatinib; 2 µM) | relative viability (Nilotinib; 0.001 µM) | relative viability (Nilotinib; 0.003162 µM) | relative viability (Nilotinib; 0.01 µM) | relative viability (Nilotinib; 0.03162 µM) | relative viability (Nilotinib; 0.1 µM) | relative viability (Lenalidomide; 0.8 µM) |
| --- | --- | --- | --- | --- | --- | --- | --- | --- | --- | --- | --- | --- | --- | --- | --- | --- | --- | --- | --- | --- | --- | --- | --- | --- |
| NCI-H650 | 1.03 | 1.21 | 0.845 | 0.95 | 0.843 | 0.812 | 0.692 | 0.538 | 0.124 | 1.05 | 0.756 | 0.917 | 0.856 | 0.382 | 1.12 | 0.863 | 0.965 | 0.926 | 0.908 | 0.811 | 0.805 | 0.658 | 0.654 |  |
| HARA | 1.11 | 1.13 | 1.05 | 0.862 | 0.784 | 0.834 | 0.878 | 0.783 | 0.131 | 0.903 | 0.961 | 0.998 | 0.365 | 0.225 | 0.979 | 0.852 | 1.14 | 0.561 | 0.983 | 0.981 | 0.948 | 0.647 | 0.569 |  |
| NCI-H2009 | 0.994 | 1.13 | 1.01 | 1.03 | 0.923 | 1.01 | 0.903 | 0.0828 | 0.0845 | 0.996 | 0.965 | 1.04 | 0.716 | 0.29 | 1.04 | 0.906 | 0.997 | 0.782 | 0.9 | 1.05 | 1.18 | 1 | 0.588 | 0.986 |
| NCI-H441 | 0.967 | 1.21 | 0.808 | 0.93 | 1.01 | 0.345 | 0.926 | 0.133 | 0.129 | 1.04 | 0.754 | 0.994 | 0.492 | 0.207 | 0.99 | 0.896 | 1.23 | 0.884 | 0.927 | 1.4 | 1.21 | 0.724 | 0.938 | 0.869 |
| PC-14 | 1.01 | 1.12 | 1.1 | 1.02 | 0.933 | 0.164 | 0.572 | 0.0917 | 0.0993 | 0.959 | 1.01 | 0.836 | 0.807 | 0.325 | 1.01 | 0.675 | 0.453 | 0.234 | 0.944 | 1.14 | 1.26 | 0.879 | 0.643 | 1.02 |
| A-427 | 1.04 | 1.15 | 0.918 | 1.06 | 0.906 | 1.03 | 0.793 | 0.395 | 0.244 | 1.05 | 0.746 | 0.973 | 0.783 | 0.218 | 1.03 | 0.904 | 0.935 | 0.924 | 0.955 | 1.06 | 1.08 | 0.871 | 0.182 | 0.979 |
| NCI-H1651 | 0.972 | 1.14 | 0.904 | 0.979 | 0.934 | 0.86 | 0.818 | 0.738 | 0.351 | 0.983 | 0.959 | 0.932 | 0.896 | 0.799 | 1 | 0.887 | 1.07 | 0.937 | 0.94 | 1.09 | 1.14 | 0.905 | 0.676 | 0.984 |
